Reference: patent US20230390371A1, “ANTI-TUMOR IMMUNITY INDUCES THE PRESENTATION OF ABERRANT PEPTIDES” (STICHTING HET NEDERLANDS KANKER INSTITUUT-ANTONI VAN …, priority 2020, published 2023)
Entries after “also recorded” stand apart in the source; their conditions may differ. Where a SMILES comes first, the peptide text is derived from it. The star is where a group is joined. Cbz = O=C(OCc1ccccc1)*

Columns and labels:
Type in all cases: cell-based, human
[1] = test system: 12T cells; experiment: Ribosome profiling with diricore / bump analysis; conditions: IFNγ+IDOi
Excerpt: Preprocessing of FASTQ files consisted of adapter removal using cutadapt (available at doi.org/10.14806/ej.17.1.200) with the parameters (--quality-base=33-O7-e 0.15-m 20-q 5) and removal of rRNA and tRNA contaminants by means of alignment against a reference (rRNA reference data from GENCODE^61 v19: rRNA, MT_RNA, rRNA_pseudogene, and tRNA reference data from GtRNAdb) using bowtie2^62 with parameters (--seed 42−p1—local).
The actual alignment of pre-processed FASTQ files was done with TopHat2^63 and Bowtie2^62 against GRCh37/ hg19 and GENCODE v19/BASIC transcript with Ensembl coordinates using parameters (seed 42-n 2-m 1 --no-novel-juncs --no-novel-indels --no-coverage-search --segment-length 25). In a subsequent step the primary aligned reads filtered for a minimum mapping quality of 10. […]
The reads (FASTQ) from Riboseq experiments were aligned to human transcript assembly (gencode v19) after removal of low quality reads and the reads that align to tRNA and rRNA (refer methods section—Diricore). […]
BAM files were converted to BED using BEDTOOLS 68 and later file formats were edited using PERL scripts. Each gene was divided into 100 windows of equal length, and read (separately for every sample) at each window were quantified using BEDTOOLS. The array of reads, logged (base 2), were normalized between 0 to 1. […]

[2] = test system: MD55A3 melanoma cells; experiment: V5-ATF4(1-63)-His frameshift reporter, His-tag pulldown and V5-tag immunoblotting; conditions: IFNγ+IDOi, MD55A3 reporter cells
Excerpt: FIG. 3: W-Bumps are associated with disordered out-of-frame peptides, and shortage in tryptophan leads to frameshifting events. • (a) Bar-plots depicting total occurrences of alpha-helices, beta-sheets and turns for tryptophan-containing peptide sequences corresponding to W-Bumps (left) and all remaining peptide sequences (middle), and the difference in percentages (right). […] Tryptophan shortage, on the other hand, can lead to stalling on the tryptophan codon (bottom left panel), or could in theory induce frameshifting events, leading to aberrant peptide production (lower right panel). Since secondary structure of growing polypeptide chains is attained in the lower tunnel of the ribosome, the loss of an a-helical secondary structure in this tunnel could hamper ribosomal progression. (c) Line-plots depicting the probability of disorderedness of peptide sequences. The position of the tryptophan is indicated by the dashed line. […] The green line represents the average probability of disorderedness of all peptides (‘All tryptophan codons’, n=36508). A group of outlier candidates that show relatively ordered out-of-frame peptide sequences were selected for comparisons (‘Selected tryptophan codons’, n=94, red). (d) Line-plots depicting mean frequency of RPFs at single nucleotide resolution across all tryptophans (green) and the selected outlier set (red) from panel 3c. […]

[3] = test system: MD55A3 cells; experiment: Proteomic analysis of tryptophan-containing proteins with IFNγ and proteasome inhibition; conditions: combined treatment with IFNγ and MG132
Protocol: Frozen MD55A3 cell pellets were lysed, reduced and alkylated in heated guanidine (GuHCl) lysis buffer as described by Jersie-Christensen et al.^70. Proteins were digested with Lys-C (Wako) for 2 h at 37° C., enzyme/substrate ratio 1:100. The mixture was then diluted to 2 M GuHCl and digested overnight at 37° C. with trypsin (Sigma) in enzyme/substrate ratio 1:50. Digestion was quenched by the addition of TFA (final concentration 1%), after which the peptides were desalted on a Sep-Pak C18 cartridge (Waters, Massachusetts, USA). Samples were vacuum dried and stored at −80° C. until LC-MS/MS analysis.
Peptides were reconstituted in 2% formic acid and analyzed by nano LC-MS/MS on an Q Exactive HF-X Hybrid Quadrupole-Orbitrap Mass Spectrometer equipped with an EASY-NLC 1200 system (Thermo Scientific). […]
RAW files were analyzed by Proteome Discoverer (version 2.3.0.523, Thermo Scientific) using standard settings. […] Differentially expressed proteins were determined using a t-test (threshold: FDR 1% or FDR 5% and S0: 0.13). […]
To look at the downstream consequences of W-Bump formation, we assessed the impact of W-Bumps on protein expression by proteomic analysis following IFNγ induction. We first analyzed the differential protein expression in IFNγ-treated versus control cells (data not shown) and grouped proteins according to the number of tryptophan residues they contain (FIG. 2l). […]

[4] = test system: peripheral blood mononuclear cells from healthy donors; experiment: Immunogenicity in peripheral blood mononuclear cells from healthy donors

Cn1cc(C[C@H](N)C(=O)O)c2ccccc21 [IDOi, 1-Methyl-L-tryptophan]
accumulation of RPFs at the W-Bumps region / bumps [1]: rescued; also recorded: completely abolished | global redistribution of RPFs towards the translation initiation sites and enrichment of tryptophan codon signal at A-site [1]: negated | IFNγ-induced frameshifting [2]: prevented

CC(C)C[C@@H](C=O)NC(=O)[C@H](CC(C)C)NC(=O)[C@H](CC(C)C)NC(=O)OCc1ccccc1 [MG132] (Cbz-Leu-Leu-Leu-aldehyde)
restoration of reduced levels of high-tryptophan containing proteins [3]: did not restore

GLLETHPALLL (SRSF3-based peptide) [SEQ ID NO:62, SRSF3-derived peptide presented by MDA-MB-231]
immunogenicity [4]: showed immunogenicity

TLVEDLLEV (RFX1-based peptide) [SEQ ID NO:58, RFX1-derived peptide presented by MDA-MB-231]
immunogenicity [4]: showed immunogenicity

TVIGTLLEI (RHOBTB3-based peptide) [SEQ ID NO:61, RHOBTB3-derived peptide presented by MDA-MB-231]
immunogenicity [4]: showed immunogenicity
